# Entries after “also recorded” stand apart in the source; their conditions may differ.
# B1: interferon γ (protein, UniProt P01579 24-161, looked up)
# Interferon gamma: QDPYVKEAENLKKYFNAGHSDVADNGTLFLGILKNWKEESDRKIMQSQIVSFYFKLFKNFKDDQSIQKSVETIKEDMNVKFFNSNKKKRDDFEKLTNYSVTDLNVQRKAIHELIQVMAELSPAAKTGKRKRSQMLFRG
# notes: cytokine used with LPS to generate M1 macrophages
# Tests used:
# [1] = system: HepG2 cells; assay: MTT cytotoxicity in HepG2 monocultures; format: cell-based, human; settings: for CC50: Homo sapiens, HepG2 monoculture, 24 h exposure, in presence of LPS and IFN-γ, read-out: IC50 values; for effects on the viability: LPS and IFN-γ together, HepG2 cells, Supplementary Figure S1
# Protocol: HepG2 cells (ECACC No. 85011430) were cultured in Ham’s F-12/Leibovitz L-15 (1:1 v/v), supplemented with 7% FBS, 50 U of penicillin/mL, and 50 μg of streptomycin/mL.
# HepG2 cells were seeded at a density of 47,000 cells/cm^2 as a monoculture control for all the experiments.
# (§1) For the toxicity studies, HepG2 cells alone or in co-culture with different proportions of M1 macrophages were seeded in 96-well plates (15,000 cells/well) and were allowed to grow and equilibrate for 24 h. Then, cells were exposed for 24 h to eight concentrations of the tested compounds (TVX, LVX, TGZ, RGZ). Each experimental condition was assayed in triplicate wells. Test compounds were diluted in DMSO, and then easily diluted in the culture medium to obtain the desired final concentrations (Table 1). The final DMSO concentration in the culture medium never exceeded 0.5% (v/v), and the control cultures were treated with the same amount of solvent.
# (§2) Cytotoxicity was assessed by means of the tetrazolium reduction colorimetric assay (MTT test) as previously described in detail.
# [2] = system: co-cultures of HepG2 and M1-THP-1 cells; assay: MTT cytotoxicity in direct co-cultures of HepG2 and M1-THP-1 macrophages; format: cell-based; settings: Homo sapiens, HepG2, 24 h, 24 h exposure
# Protocol: (§3) THP-1 cells were differentiated to macrophages via incubation with phorbol-12-myrsitate 13-acetate (PMA, 20 or 50 ng/mL) for 72 h. After differentiation, THP-1 cells became adherent with typical macrophage morphology. To generate M1 macrophages, cells were then stimulated with LPS (1 µg/mL) in the presence or absence of interferon γ (IFN-γ) (20 ng/mL) as described in Figure 1.
# For subculturing purposes, cells (HepG2 or THP-1) were detached via treatment with 0.25% trypsin/0.02% EDTA at 37 °C. In order to determine the effect of pro-inflammatory macrophages on HepG2 cells, different co-culture conditions were tested. Co-culture proportions were 1:10, 1:5, and 1:2 (M1:HepG2), respectively. Cells were seeded at 47,000 cells/cm^2 per condition and co-culture media consisted of HepG2 and M1-THP-1 cell culture media (1:1). The schedule followed for co-culturing HepG2 cells and M1-THP-1 macrophages is exemplified in Figure 2.
# as §1, §2
# [3] = system: HepG2 monocultures and different co-cultures of HepG2 and M1-THP-1 cells; assay: Concentration-dependent toxicity compared across test systems (MTT viability); format: cell-based; settings: 24 h exposure; for concentrations producing significant cell death / decrease in viability: Figure 6; for effect on viability in co-cultures compared to monocultures of HepG2 cells: co-culture ratios 1:10, 1:5, 1:2
# Protocol: as §1, §2
# Data represent triplicate measurements and are expressed as the mean ± SD. Student’s t-test was used for statistical evaluations between two groups, whereas one-way ANOVA followed by Tukey’s multiple comparisons test was used when comparing 3 or more groups. The level of significance was chosen as p < 0.05 and calculated using GraphPad Prism v. 8.4.3.
# [4] = system: HepG2 cells and co-cultures at different ratios (1:10, 1:5, and 1:2); assay: Gene expression (RT-qPCR) of oxidative stress, GSH-related and apoptotic genes in treated cultures; format: cell-based, human
# Text: Total RNA was extracted using the RNeasy Plus Mini Kit (Qiagen, Madrid, Spain), and was reverse transcribed as described elsewhere. Diluted cDNA was amplified using LightCycler DNA Master SYBR Green I (Roche Applied Science, Barcelona, Spain) and the appropriate primers (Supplementary Table S2) were amplified using a LightCycler 480 Instrument (Roche Applied Science, Barcelona, Spain). For normalization, porphobilinogen deaminase (PBGD), TATA box binding protein (TBP), Large Ribosomal Subunit Protein UL10 (RPLP0), and actin were used. During each amplification, a reference calibrator cDNA, made from a pool of human livers, was included. The relative mRNA expression was calculated using the LightCycler Relative Quantification Analysis software verson 1.5.0.39. Based on PCR efficiencies and the cycle thresholds, the relative concentration of the target and reference cDNAs and their ratio were determined. Additionally, gene expression analysis of test systems alone or treated with the selected toxic compounds was also performed as indicated in Section 2.3.2. For toxicotranscriptomics studies, cells were seeded in P12-well plates at a density of 47,000 cells/cm^2.
# [5] = set-up: method as in PMID 18524759; settings: cited from earlier work
# [6] = system: THP-1 cells; assay: Viability of THP-1 cells after differentiation to pro-inflammatory macrophages; format: cell-based, human; settings: PMA 50 ng/mL for differentiation followed by LPS and IFN-γ
# Protocol: as §3
# [7] = 100 µM, compared to non-treated cells
Molecule,CC50 [1] [µM],IC50 ([2]; Co-culture 1.10 (M1:HepG2)) [µM],IC50 ([2]; Co-culture 1.2 (M1:HepG2)) [µM],IC50 ([2]; Co-culture 1.5 (M1:HepG2)) [µM],concentrations producing significant cell death / decrease in viability [3],effect on viability in co-cultures compared to monocultures of HepG2 cells [3],"mRNA levels of Nfr2 pathway, GSH-related enzymes and apoptotic genes [4, 7]","mRNA levels of Nfr2 pathway, GSH-related enzymes and apoptotic genes ([4]; 25 µM, 24 h, compared to non-treated cultures, listed as TVX)",Cmax [5] [µM],effects on the viability [1],"mRNA levels of Nfr2 pathway, GSH-related enzymes and apoptotic genes ([4]; 25 µM, 24 h, compared to non-treated cultures)",viability after differentiation [6]
CN(CCOc1ccc(CC2SC(=O)NC2=O)cc1)c1ccccn1 (stereo not drawn) [Rosiglitazone],> 250,> 250,> 250,> 250,higher than 200 µM,no significant differences between the test systems were found,"produced increases in the expression of GCLM, TXNRD1, and DDIT",,,,,
Cc1c(C)c2c(c(C)c1O)CCC(C)(COc1ccc(CC3SC(=O)NC3=O)cc1)O2 (stereo not drawn) [Troglitazone],223,208,188,203,higher than 100 µM,decrease in the viability was more significant in the co-cultures at the highest ratios of M1 cells,"increased the GCLM, DDIT, and TXNRD1 levels and reduced the GSTA2, GSTA4, GSTT1, and GPX2 levels",,,,,
N[C@@H]1[C@H]2CN(c3nc4c(cc3F)c(=O)c(C(=O)O)cn4-c3ccc(F)cc3F)C[C@@H]12 [Trovafloxacin],675,531,74,529,higher than 50 µM,A synergistic effect was detected in the co-cultures,,"reduced the GSTT1, GSTT2, GSTA2, GSTA4, NNQO1, GPX1, GPX2, and GPX4 levels in all the culture conditions; also recorded: Increased levels of AT4 and SOD2",4.1,,,
lipopolysaccharide [LPS],,,,,,,,,,No significant effects on the viability,,
C[C@H]1COc2c(N3CCN(C)CC3)c(F)cc3c(=O)c(C(=O)O)cn1c23 [Levofloxacin],> 800,> 800,> 800,> 800,> 750 µM,no synergic effect was observed,,,15.7,,did not significantly change the gene expression,
"CCCCCCCCCCCCCC(=O)O[C@@H]1[C@@H](C)[C@@]2(O)[C@@H](C=C(CO)C[C@]3(O)C(=O)C(C)=C[C@@H]23)[C@@H]2C(C)(C)[C@]12OC(C)=O [PMA, phorbol-12-myrsitate 13-acetate]",,,,,,,,,,,,79 ± 5
B1,,,,,,,,,,No significant effects on the viability,,

# — article PMC10376129, “Mechanistic Understanding of Idiosyncratic Drug-Induced Hepatotoxicity Using Co-Cultures of Hepatocytes and Macrophages” (Antioxidants, 2023)
